Experimental data published in patent EP0044992A1, “Lactams, process for their preparation and pharmaceutical compositions containing them” (Dr. Karl Thomae GmbH, priority 1980, dated 1982).
Values after ≈ are worked out from the molar mass of the structure shown.

Legend:
[1] = system: E. coli R+TEM (ß-Lactamase-Träger); experiment: Serial dilution test in microtiter system (bacteriostasis, MIC); format: cell-based; settings: Escherichia coli, read-out: Minimale Hemmkonzentration E.coli R+TEM
Method: (§1) Für die Untersuchungen wurde die Methode des Reihenverdünnungstestes im Mikrotitersystem angewandt. Die Prüfung der Substanzen auf Bakteriostase erfolgte in flüssigem Medium. Es wurde die Bakteriostasewirkung bei folgenden Konzentrationen untersucht: • 128, 64, 32, 16, 8, 4, 2, 1, 0,5, 0,25, 0,12, 0,06jug/ml. Es wurde ein Nährboden folgender Zusammensetzung benutzt: 10 g Pepton, 8 g Fleischextrakt-Oxoid, 3 g Natriumchlorid, 2 g sek. Natriumphosphat werden mit dest. Wasser auf […] aufgefüllt (pH 7,2 - 7,4). Lediglich bei der Testung gegen Streptokokken wurde 1 % Glucose hinzugefügt. Das Alter der Primärkulturen betrugt etwa 20 Stunden. Die Einstellung der Keimsuspension erfolgte am Photometer (nach "Eppendorf") (Reagenzglas-Durchmesser 14 mm, Filter 546nm) anhand der Trübung einer Bariumsulfat-Vergleichssuspension, die durch eine Bariumsulfat-Aufschwemmung erzeugt wurde, welche durch die Zugabe von 3,0 ml 1%ige Barium-chloridlösung in 97 ml 1%ige Schwefelsäure entstand. Nach der Einstellung wurden Streptococcus Aronson im Verhältnis 1:15 und die übrigen Testkeime im Verhältnis 1:1500 mit einer Kochsalzlösung weiter verdünnt.
(§2) 16 mg der jeweiligen Substanz wurden in 10 ml-Meßkolben eingewogen und mit dem Lösungsmittel bis zur Marke aufgefüllt. Die weitere Verdünnungsreihe wurde mit destilliertem Wasser oder dem jeweiligen Lösungsmittel hergestellt.
(§3) Die Vertiefungen der Mikrotiterplatten wurden mit 0,2 ml Nährmedium, 0,01 ml der entsprechenden Substanzverdünnung und mit einem Tropfen Keimsuspension (0,01 ml) beschickt und 18 bis 20 Stunden bei 37 °C bebrütet. Eine Lösungsmittelkontrolle wurde stets mitgeführt.
(§4) Die Ablesung wurde makroskopisch vorgenommen, wobei die jeweilige Grenzkonzentration (= niedrigste noch bakteriostatisch wirksame Konzentration) ermittelt wurde.
(§5) Als Testorganismen wurden benützt: • Staphylococcus aureus SG 511, Escherichia coli ATCC 11 775, Pseudomonas aeruginosa Hamburgensis und Pseudomonas; aeruginosa walter, Serratia marcescens ATCC 13 880, Klebsiella pneumoniae ATCC 10 031 und BC 6, Proteus mirabilis Hamburgensis, Proteus rettgeri, Enterobacter cloacae ATCC 13 047, E. coli R+TEM (ß-Lactamase-Träger).

[2] = system: Enterobacter cloacae ATCC 13 047; experiment: as above; format: cell-based; settings: liquid medium, 18 to 20 h at 37 °C, read-out: Minimale Hemmkonzentration Ent. cloacae ATCC 13047
Method: as §1, §2, §3, §4, §5

[3] = system: Escherichia coli ATCC 11 775; experiment: as above; format: cell-based; settings: liquid medium, 18 to 20 h at 37 °C, read-out: Minimale Hemmkonzentration E.coli ATCC 11775
Method: as §1, §2, §3, §4, §5

[4] = system: Klebsiella pneumoniae ATCC 10 031; experiment: as above; format: cell-based; settings: liquid medium, 18 to 20 h at 37 °C, read-out: Minimale Hemmkonzentration Kl.pneum. ATCC 10031
Method: as §1, §2, §3, §4, §5

[5] = system: Klebsiella pneumoniae BC 6; experiment: as above; format: cell-based; settings: BC6, liquid medium, 18 to 20 h at 37 °C, read-out: Minimale Hemmkonzentration Kl.pneum. BC 6
Method: as §1, §2, §3, §4, §5

[6] = system: Proteus mirabilis Hamburgensis; experiment: as above; format: cell-based; settings: liquid medium, 18 to 20 h at 37 °C, read-out: Minimale Hemmkonzentration Prot. mirab. Hbg.
Method: as §1, §2, §3, §4, §5

[7] = system: Proteus rettgeri; experiment: as above; format: cell-based; settings: Providencia rettgeri; liquid medium, 18 to 20 h at 37 °C; read-out: Minimale Hemmkonzentration Prot. Rettg.
Method: as §1, §2, §3, §4, §5

[8] = system: Pseudomonas aeruginosa Hamburgensis; experiment: as above; format: cell-based; settings: liquid medium, 18 to 20 h at 37 °C, read-out: Minimale Hemmkonzentration Pseud. Hbg.
Method: as §1, §2, §3, §4, §5

[9] = system: Pseudomonas aeruginosa walter; experiment: as above; format: cell-based; settings: liquid medium, 18 to 20 h at 37 °C, read-out: Minimale Hemmkonzentration Pseud.W.
Method: as §1, §2, §3, §4, §5

[10] = system: Serratia marcescens ATCC 13 880; experiment: as above; format: cell-based; settings: liquid medium, 18 to 20 h at 37 °C, read-out: Minimale Hemmkonzentration Serr. marcesc. ATCC 13880
Method: as §1, §2, §3, §4, §5

[11] = system: Staphylococcus aureus SG 511; experiment: as above; format: cell-based; settings: SG511, liquid medium, 18 to 20 h at 37 °C, read-out: Minimale Hemmkonzentration Staph. aureus SG 511
Method: as §1, §2, §3, §4, §5

[12] = system: E. coli ATCC 11 775; experiment: In vivo activity, experimental intraperitoneal E. coli infection in mice; set-up: species or system Mäuse; settings: Escherichia coli, ATCC11, sc, 168 h; female NMRI mice, i.p. E. coli infection, s.c. application once 1 h after infection, 7 days observation; dose at which 50 % of animals survive
Method: Eine Reihe von erfindungsgemäßen Verbindungen wurde in vivo bei experimentellen Infektionen an Mäusen untersucht. Man verwendete als pathogene Bakterien E. coli ATCC 11 775. Es wurde eine intraperitoneale Infektion mit 0,2 ml einer Bakteriensuspension (mit 5 % Mucin) gesetzt. Dies entspricht etwa 1,4 x 10^6 Keime E. coli/Maus. Weibliche Mäuse vom Stamm NMRI wurden in Gruppen von jeweils 10 Tieren aufgeteilt, zwei Gruppen blieben unbehandelt, die restlichen Gruppen wurden mit verschiedenen Dosen der jeweiligen erfindungsgemäßen Penicilline und Cephalosporine subcutan zur Bestimmung der ED50 (Dosis bei der 50 % der Tiere überleben) behandelt. Es wurde einmal eine Stunde: nach Setzen der Injektion therapiert.
Der Beobachtungszeitraum betrug in beiden Fällen 7 Tage. Die Ergebnisse dieser Teste mit repräsentativen Vertretern der erfindungsgemäßen Penicilline und Cephalosporine sind in der Tabelle 2 dargestellt.

Structure (SMILES) | MIC [1] | MIC [2] | MIC [3] | MIC [4] | MIC [5] | MIC [6] | MIC [7] | MIC [8] | MIC [9] | MIC [10] | MIC [11] | ED50 [12]
CO/N=C(\C(=O)N[C@@H]1C(=O)N2C(C(=O)O)=C(COC(N)=O)CS[C@H]12)c1ccco1 [Cefuroxim, reference compound] | 4 µg/mL (≈ 9.43 µM) | 32 µg/mL (≈ 75.4 µM) | 8 µg/mL (≈ 18.9 µM) | 2 µg/mL (≈ 4.71 µM) | 4 µg/mL (≈ 9.43 µM) | 0.5 µg/mL (≈ 1.18 µM) | 2 µg/mL (≈ 4.71 µM) | > 128 µg/mL | > 128 µg/mL | 8 µg/mL (≈ 18.9 µM) | 1 µg/mL (≈ 2.36 µM) | > 100 mg/kg
CCOC(=O)Oc1ccc([C@@H](NC(=O)Nc2cnc(Nc3ccc(S(N)(=O)=O)cc3)nc2O)C(=O)N[C@@H]2C(=O)N3C(C(=O)O)=C(CSc4nnnn4C)CS[C@H]23)cc1 [C, Natrium-7-{D-α-[3-(2-p-aminosulfonylanilino-4-hydroxy-5-pyrimidinyl)-ureido]-p-äthoxy-carbonyloxy-phenylacetamido}-3-[(1-methyl-tetrazol-5-yl)-thiomethyl]-ceph-3-em-4-carboxylat] | 4 µg/mL (≈ 4.67 µM) | 0.5 µg/mL (≈ 0.584 µM) | 0.12 µg/mL (≈ 0.14 µM) | 0.5 µg/mL (≈ 0.584 µM) | 0.25 µg/mL (≈ 0.292 µM) | 0.12 µg/mL (≈ 0.14 µM) | 1 µg/mL (≈ 1.17 µM) | 8 µg/mL (≈ 9.34 µM) | 4 µg/mL (≈ 4.67 µM) | 0.25 µg/mL (≈ 0.292 µM) | 1 µg/mL (≈ 1.17 µM) | 0.6 mg/kg
CCOC(=O)Oc1ccc([C@@H](NC(=O)Nc2cnc(Nc3ccc(S(N)(=O)=O)cc3)nc2O)C(=O)N[C@@H]2C(=O)N3[C@@H]2SC(C)(C)[C@@H]3C(=O)O)cc1 [A, D-α-[3-(2-p-Aminosulfonylanilino-4-hydroxy-5-pyrimidinyl)-ureido]-p-äthoxycarbonyloxy-benzylpenicillin-Natrium] | > 64 µg/mL | 1 µg/mL (≈ 1.34 µM) | 0.25 µg/mL (≈ 0.336 µM) | 2 µg/mL (≈ 2.69 µM) | 2 µg/mL (≈ 2.69 µM) | 0.12 µg/mL (≈ 0.161 µM) | 1 µg/mL (≈ 1.34 µM) | 2 µg/mL (≈ 2.69 µM) | 2 µg/mL (≈ 2.69 µM) | 0.25 µg/mL (≈ 0.336 µM) | 0.5 µg/mL (≈ 0.671 µM) | 5.5 mg/kg
CC(=O)Oc1ccc([C@@H](NC(=O)Nc2cnc(Nc3ccc(S(N)(=O)=O)cc3)nc2O)C(=O)N[C@@H]2C(=O)N3[C@@H]2SC(C)(C)[C@@H]3C(=O)O)cc1 [B, D-α-[3-(2-p-Aminosulfonylanilino-4-hydroxy-5-pyrimidinyl)-ureido]-p-methylcarbonyloxy-benzylpenicillin-Natrium] | > 64 µg/mL | 2 µg/mL (≈ 2.8 µM) | 0.25 µg/mL (≈ 0.35 µM) | 4 µg/mL (≈ 5.6 µM) | 2 µg/mL (≈ 2.8 µM) | 0.12 µg/mL (≈ 0.168 µM) | 2 µg/mL (≈ 2.8 µM) | 4 µg/mL (≈ 5.6 µM) | 2 µg/mL (≈ 2.8 µM) | 0.5 µg/mL (≈ 0.7 µM) | 0.5 µg/mL (≈ 0.7 µM) | 4.5 mg/kg
CC1(C)S[C@@H]2[C@H](NC(=O)[C@H](NC(=O)N3CCNC3=O)c3ccccc3)C(=O)N2[C@H]1C(=O)O [Azlocillin, reference compound] | > 64 µg/mL | 32 µg/mL (≈ 69.3 µM) | 8 to 16 µg/mL (≈ 17.3 to 34.7 µM) | 32 µg/mL (≈ 69.3 µM) | 32 µg/mL (≈ 69.3 µM) | 2 µg/mL (≈ 4.33 µM) | 8 µg/mL (≈ 17.3 µM) | 8 µg/mL (≈ 17.3 µM) | 8 µg/mL (≈ 17.3 µM) | 4 µg/mL (≈ 8.67 µM) | 2 µg/mL (≈ 4.33 µM) | > 100 mg/kg
CC(=O)Oc1ccc([C@@H](NC(=O)Nc2cnc(Nc3ccc(S(N)(=O)=O)cc3)nc2O)C(=O)N[C@@H]2C(=O)N3C(C(=O)O)=C(CSc4nnnn4C)CS[C@H]23)cc1 [D, Natrium-7-{D-α-[3-(2-p-aminosulfonyl-anilino-4-hydroxy-5-pyrimidinyl)-ureido]-p-methylcarbonyloxy-phenylacetamido}-3-[(1-methyl-tetrazol-5-yl)-thiomethyl]-ceph-3-em-4-carboxylat] | 16 µg/mL (≈ 19.4 µM) | 4 µg/mL (≈ 4.84 µM) | 0.5 µg/mL (≈ 0.605 µM) | 2 µg/mL (≈ 2.42 µM) | 1 µg/mL (≈ 1.21 µM) | 0.25 µg/mL (≈ 0.302 µM) | 2 µg/mL (≈ 2.42 µM) | 16 µg/mL (≈ 19.4 µM) | 8 µg/mL (≈ 9.68 µM) | 2 µg/mL (≈ 2.42 µM) | 1 µg/mL (≈ 1.21 µM) | 3 mg/kg
